These results are taken from patent US10093713B2, “GIP-GLP-1 dual agonist compounds and methods” (priority 2013, dated 2018).

*1 amine or outer side, *2 acyl side, *3 side chain or, on linkers, in order; H or OH if unused. Where a SMILES comes first, the peptide text is derived from it. Side-chain parts run from the residue outwards. [ ]: non-standard residue; d: D form. The star is where a group is joined. X1 = O=C(O)CCCCCCCCCCCCCCCCCCC(=O)N1CCN(CC(=O)*)CC1; C20 diacid = O=C(O)CCCCCCCCCCCCCCCCCCC(=O)*; C18 diacid = O=C(O)CCCCCCCCCCCCCCCCC(=O)*; γGlu = O=C(O)[C@H](CCC(=O)[*:2])N[*:1]; AEEA = NCCOCCOCC(=O)O; Aib = CC(C)(N)C(=O)O

A word on the EC50: it is the concentration that produces a half-maximal response.

One experiment deals with T1, human GLP-1 R (Homo sapiens, UniProt P43220).
T1 construct: expressed in transfected cells
T1 sequence (P43220 24-463): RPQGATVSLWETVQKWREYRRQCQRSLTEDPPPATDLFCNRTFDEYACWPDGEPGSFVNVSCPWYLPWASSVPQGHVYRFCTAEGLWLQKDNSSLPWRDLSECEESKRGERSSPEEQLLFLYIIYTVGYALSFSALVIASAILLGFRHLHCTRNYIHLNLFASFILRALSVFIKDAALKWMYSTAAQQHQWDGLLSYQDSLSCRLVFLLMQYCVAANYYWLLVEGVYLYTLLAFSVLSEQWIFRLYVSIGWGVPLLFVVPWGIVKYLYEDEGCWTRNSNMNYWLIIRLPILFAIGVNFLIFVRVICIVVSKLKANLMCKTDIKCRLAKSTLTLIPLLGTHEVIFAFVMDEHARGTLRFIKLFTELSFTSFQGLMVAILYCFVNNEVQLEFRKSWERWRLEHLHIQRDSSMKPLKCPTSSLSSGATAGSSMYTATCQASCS
Briefly: Human GLP-1 receptor (GLP-1 R) activity assay, cAMP induction (AlphaScreen) in HEK293 cells. To be noted: Table 3; most comprehensive data; read-out: hGLP-1-R cAMP EC50 average value. The experiment is classed as cell-based. In outline: (§1)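 Stable HEK293 clones expressing human GIP R or GLP-1 R, seeded 1 day before; cells washed in Tyrode's buffer (10 mM HEPES, pH 7.4), stimulated, then lysed. cAMP measured by AlphaScreen bead competition (1 h, room temperature, dark). EC50 = concentration giving half-maximal cAMP elevation, from curves of absolute cAMP (nM) vs log concentration.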
A general note: Alpha assays give light when donor and acceptor beads are brought close together.

The next experiment deals with T2, human GIP R (Homo sapiens, UniProt P48546).
T2 construct: expressed in transfected cells
T2 sequence (P48546 22-466): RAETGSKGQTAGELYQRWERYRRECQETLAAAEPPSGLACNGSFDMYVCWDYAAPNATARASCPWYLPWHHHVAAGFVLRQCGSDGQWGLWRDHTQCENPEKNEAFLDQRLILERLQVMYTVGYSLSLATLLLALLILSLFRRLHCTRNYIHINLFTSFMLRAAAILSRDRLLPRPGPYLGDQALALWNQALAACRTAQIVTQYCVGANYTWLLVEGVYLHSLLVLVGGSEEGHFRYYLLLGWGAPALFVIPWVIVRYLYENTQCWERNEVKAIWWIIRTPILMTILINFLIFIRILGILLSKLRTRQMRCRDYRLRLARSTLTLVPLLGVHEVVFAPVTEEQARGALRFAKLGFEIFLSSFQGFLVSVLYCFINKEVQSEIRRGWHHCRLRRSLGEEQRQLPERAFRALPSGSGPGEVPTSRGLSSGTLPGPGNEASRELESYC
Briefly: Human GIP receptor (GIP R) activity assay, cAMP induction (AlphaScreen) in HEK293 cells. Format: cell-based. The following applies: Table 3; most comprehensive data; read-out: hGIP-R cAMP EC50 average value. In outline:
as §1

On to `CC[C@H](C)[C@H](NC(=O)[C@H](CO)NC(=O)[C@H](Cc1ccc(O)cc1)NC(=O)[C@H](CC(=O)O)NC(=O)[C@H](CO)NC(=O)[C@@H](NC(=O)[C@H](Cc1ccccc1)NC(=O)[C@@H](NC(=O)CNC(=O)[C@H](CCC(=O)O)NC(=O)C(C)(C)NC(=O)[C@@H](N)Cc1ccc(O)cc1)[C@@H](C)O)[C@@H](C)O)C(=O)N[C@@H](C)C(=O)N[C@@H](CC(C)C)C(=O)N[C@@H](CC(=O)O)C(=O)N[C@@H](CCCCN)C(=O)N[C@@H](CCCCNC(=O)COCCOCCNC(=O)COCCOCCNC(=O)CC[C@H](NC(=O)CCCCCCCCCCCCCCCCCCC(=O)O)C(=O)O)C(=O)N[C@@H](C)C(=O)N[C@@H](CCC(N)=O)C(=O)N[C@@H](CCCCN)C(=O)N[C@@H](CCC(=O)O)C(=O)N[C@@H](Cc1ccccc1)C(=O)N[C@H](C(=O)N[C@@H](CCC(=O)O)C(=O)N[C@@H](Cc1c[nH]c2ccccc12)C(=O)N[C@@H](CC(C)C)C(=O)N[C@@H](CC(C)C)C(=O)N[C@@H](C)C(=O)N[C@@H](C)C(=O)NCC(=O)N1CCC[C@H]1C(=O)N[C@@H](CO)C(=O)N[C@@H](CO)C(=O)NCC(=O)N[C@@H](C)C(=O)N1CCC[C@H]1C(=O)N1CCC[C@H]1C(=O)N1CCC[C@H]1C(=O)N[C@@H](CO)C(N)=O)C(C)C` [Compound 49] (H-Y[Aib]EGTFTSDYSIALDKK([AEEA-AEEA-γGlu-C20 diacid])AQKEFVEWLLAAGPSSGAPPPS-NH2), for which the EC50 on human GLP-1 R was 0.053 nM; on human GIP R, 0.009 nM.

Regarding `CC[C@H](C)[C@H](NC(=O)[C@H](CO)NC(=O)[C@H](Cc1ccc(O)cc1)NC(=O)[C@H](CC(=O)O)NC(=O)[C@H](CO)NC(=O)[C@@H](NC(=O)[C@H](Cc1ccccc1)NC(=O)[C@@H](NC(=O)CNC(=O)[C@H](CCC(=O)O)NC(=O)C(C)(C)NC(=O)[C@@H](N)Cc1ccc(O)cc1)[C@@H](C)O)[C@@H](C)O)C(=O)N[C@@H](C)C(=O)N[C@@H](CC(C)C)C(=O)N[C@@H](CC(=O)O)C(=O)N[C@@H](CCCCN)C(=O)N[C@@H](CCCCNC(=O)COCCOCCNC(=O)COCCOCCNC(=O)CC[C@H](NC(=O)CCCCCCCCCCCCCCCCCCC(=O)O)C(=O)O)C(=O)N[C@@H](C)C(=O)N[C@@H](CCC(N)=O)C(=O)N[C@@H](CCCNC(=N)N)C(=O)N[C@@H](C)C(=O)N[C@@H](Cc1ccccc1)C(=O)N[C@H](C(=O)N[C@@H](CCC(=O)O)C(=O)N[C@@H](Cc1c[nH]c2ccccc12)C(=O)N[C@@H](CC(C)C)C(=O)N[C@@H](CC(C)C)C(=O)N[C@@H](C)C(=O)N[C@@H](CCC(N)=O)C(=O)NCC(=O)N1CCC[C@H]1C(=O)N[C@@H](CO)C(=O)N[C@@H](CO)C(=O)NCC(=O)N[C@@H](C)C(=O)N1CCC[C@H]1C(=O)N1CCC[C@H]1C(=O)N1CCC[C@H]1C(=O)N[C@@H](CO)C(N)=O)[C@@H](C)CC` [Compound 50] (H-Y[Aib]EGTFTSDYSIALDKK([AEEA-AEEA-γGlu-C20 diacid])AQRAFIEWLLAQGPSSGAPPPS-NH2), the figures for the EC50 on human GLP-1 R and at human GIP R were 0.015 nM and 0.007 nM, respectively.

For `CC[C@H](C)[C@H](NC(=O)[C@H](CO)NC(=O)[C@H](Cc1ccc(O)cc1)NC(=O)[C@H](CC(=O)O)NC(=O)[C@H](CO)NC(=O)[C@@H](NC(=O)[C@H](Cc1ccccc1)NC(=O)[C@@H](NC(=O)CNC(=O)[C@H](CCC(=O)O)NC(=O)C(C)(C)NC(=O)[C@@H](N)Cc1ccc(O)cc1)[C@@H](C)O)[C@@H](C)O)C(=O)N[C@@H](C)C(=O)N[C@@H](CC(C)C)C(=O)N[C@@H](CC(=O)O)C(=O)N[C@@H](CCCCN)C(=O)N[C@@H](CCCCNC(=O)COCCOCCNC(=O)COCCOCCNC(=O)CC[C@H](NC(=O)CCCCCCCCCCCCCCCCC(=O)O)C(=O)O)C(=O)N[C@@H](C)C(=O)N[C@@H](CCC(N)=O)C(=O)N[C@@H](CCCNC(=N)N)C(=O)N[C@@H](C)C(=O)N[C@@H](Cc1ccccc1)C(=O)N[C@H](C(=O)N[C@@H](CCC(=O)O)C(=O)N[C@@H](Cc1c[nH]c2ccccc12)C(=O)N[C@@H](CC(C)C)C(=O)N[C@@H](CC(C)C)C(=O)N[C@@H](C)C(=O)N[C@@H](CCC(N)=O)C(=O)NCC(=O)N1CCC[C@H]1C(=O)N[C@@H](CO)C(=O)N[C@@H](CO)C(=O)NCC(=O)N[C@@H](C)C(=O)N1CCC[C@H]1C(=O)N1CCC[C@H]1C(=O)N1CCC[C@H]1C(=O)N[C@@H](CO)C(N)=O)C(C)C` [Compound 51] (H-Y[Aib]EGTFTSDYSIALDKK([AEEA-AEEA-γGlu-C18 diacid])AQRAFVEWLLAQGPSSGAPPPS-NH2), the concentration for a half-maximal effect (EC50) at human GLP-1 R came out at 0.017 nM; on human GIP R, 0.005 nM.

Turning to `CC[C@H](C)[C@H](NC(=O)[C@H](CO)NC(=O)[C@H](Cc1ccc(O)cc1)NC(=O)[C@H](CC(=O)O)NC(=O)[C@H](CO)NC(=O)[C@@H](NC(=O)[C@H](Cc1ccccc1)NC(=O)[C@@H](NC(=O)CNC(=O)[C@H](CCC(=O)O)NC(=O)C(C)(C)NC(=O)[C@@H](N)Cc1ccc(O)cc1)[C@@H](C)O)[C@@H](C)O)C(=O)N[C@@H](C)C(=O)N[C@@H](CC(C)C)C(=O)N[C@@H](CC(=O)O)C(=O)N[C@@H](CCCCN)C(=O)N[C@@H](CCCCNC(=O)COCCOCCNC(=O)COCCOCCNC(=O)CN1CCN(C(=O)CCCCCCCCCCCCCCCCCCC(=O)O)CC1)C(=O)N[C@@H](C)C(=O)N[C@@H](CCC(N)=O)C(=O)N[C@@H](CCCNC(=N)N)C(=O)N[C@@H](C)C(=O)N[C@@H](Cc1ccccc1)C(=O)N[C@H](C(=O)N[C@@H](CCC(=O)O)C(=O)N[C@@H](Cc1c[nH]c2ccccc12)C(=O)N[C@@H](CC(C)C)C(=O)N[C@@H](CC(C)C)C(=O)N[C@@H](C)C(=O)N[C@@H](CCC(N)=O)C(=O)NCC(=O)N1CCC[C@H]1C(=O)N[C@@H](CO)C(=O)N[C@@H](CO)C(=O)NCC(=O)N[C@@H](C)C(=O)N1CCC[C@H]1C(=O)N1CCC[C@H]1C(=O)N1CCC[C@H]1C(=O)N[C@@H](CO)C(N)=O)C(C)C` [Compound 52] (H-Y[Aib]EGTFTSDYSIALDKK([AEEA-AEEA-X1])AQRAFVEWLLAQGPSSGAPPPS-NH2), the EC50 at human GLP-1 R was found to be 0.012 nM; on human GIP R it was 0.01 nM.

For `CC[C@H](C)[C@H](NC(=O)[C@H](CO)NC(=O)[C@H](Cc1ccc(O)cc1)NC(=O)[C@H](CC(=O)O)NC(=O)[C@H](CO)NC(=O)[C@@H](NC(=O)[C@H](Cc1ccccc1)NC(=O)[C@@H](NC(=O)CNC(=O)[C@H](CCC(=O)O)NC(=O)C(C)(C)NC(=O)[C@@H](N)Cc1ccc(O)cc1)[C@@H](C)O)[C@@H](C)O)C(=O)N[C@@H](C)C(=O)N[C@@H](CC(C)C)C(=O)N[C@@H](CC(=O)O)C(=O)N[C@@H](CCCCN)C(=O)N[C@@H](CCCCNC(=O)COCCOCCNC(=O)COCCOCCNC(=O)CN1CCN(C(=O)CCCCCCCCCCCCCCCCCCC(=O)O)CC1)C(=O)N[C@@H](C)C(=O)N[C@@H](CCC(N)=O)C(=O)N[C@@H](CCCCN)C(=O)N[C@@H](CCC(=O)O)C(=O)N[C@@H](Cc1ccccc1)C(=O)N[C@H](C(=O)N[C@@H](CCC(=O)O)C(=O)N[C@@H](Cc1c[nH]c2ccccc12)C(=O)N[C@@H](CC(C)C)C(=O)N[C@@H](CC(C)C)C(=O)N[C@@H](C)C(=O)N[C@@H](C)C(=O)NCC(=O)N1CCC[C@H]1C(=O)N[C@@H](CO)C(=O)N[C@@H](CO)C(=O)NCC(=O)N[C@@H](C)C(=O)N1CCC[C@H]1C(=O)N1CCC[C@H]1C(=O)N1CCC[C@H]1C(=O)N[C@@H](CO)C(N)=O)C(C)C` [Compound 53] (H-Y[Aib]EGTFTSDYSIALDKK([AEEA-AEEA-X1])AQKEFVEWLLAAGPSSGAPPPS-NH2), the values for the EC50 on human GLP-1 R and at human GIP R were 0.014 nM and 0.006 nM, respectively.

For the compound `CC[C@H](C)[C@H](NC(=O)[C@H](CO)NC(=O)[C@H](Cc1ccc(O)cc1)NC(=O)[C@H](CC(=O)O)NC(=O)[C@H](CO)NC(=O)[C@@H](NC(=O)[C@H](Cc1ccccc1)NC(=O)[C@@H](NC(=O)CNC(=O)[C@H](CCC(=O)O)NC(=O)C(C)(C)NC(=O)[C@@H](N)Cc1ccc(O)cc1)[C@@H](C)O)[C@@H](C)O)C(=O)N[C@@H](Cc1ccc(O)cc1)C(=O)N[C@@H](CC(C)C)C(=O)N[C@@H](CC(=O)O)C(=O)N[C@@H](CCCCN)C(=O)N[C@@H](CCCCNC(=O)COCCOCCNC(=O)COCCOCCNC(=O)CC[C@H](NC(=O)CCCCCCCCCCCCCCCCCCC(=O)O)C(=O)O)C(=O)N[C@@H](C)C(=O)N[C@@H](CCC(N)=O)C(=O)N[C@@H](CCCNC(=N)N)C(=O)N[C@@H](C)C(=O)N[C@@H](Cc1ccccc1)C(=O)N[C@H](C(=O)N[C@@H](CCC(=O)O)C(=O)N[C@@H](Cc1c[nH]c2ccccc12)C(=O)N[C@@H](CC(C)C)C(=O)N[C@@H](CC(C)C)C(=O)N[C@@H](C)C(=O)N[C@@H](CCC(=O)O)C(=O)NCC(=O)N1CCC[C@H]1C(=O)N[C@@H](CO)C(=O)N[C@@H](CO)C(=O)NCC(=O)N[C@@H](C)C(=O)N1CCC[C@H]1C(=O)N1CCC[C@H]1C(=O)N1CCC[C@H]1C(=O)N[C@@H](CO)C(N)=O)C(C)C` [Compound 54] (H-Y[Aib]EGTFTSDYSIYLDKK([AEEA-AEEA-γGlu-C20 diacid])AQRAFVEWLLAEGPSSGAPPPS-NH2), the EC50 was 0.012 nM at human GLP-1 R and 0.016 nM at human GIP R.
